Measured values reported in the supplement of paper PMC10307832.

Tests used:
Experiment in all cases: relative viability (nuclei count vs DMSO), 5 days (fraction); higher = more cells survive
JZL-184 + Pemetrexed = compound: C1CN(CCC1C(C2=CC3=C(C=C2)OCO3)(C4=CC5=C(C=C4)OCO5)O)C(=O)OC6=CC=C(C=C6)[N+](=O)[O-] [JZL-184] + Nc1nc2[nH]cc(CCc3ccc(C(=O)N[C@@H](CCC(=O)O)C(=O)O)cc3)c2c(=O)[nH]1 [Pemetrexed] (partner 0.2 µM)
Procedure, shortened: (§1)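 The day after seeding in 1536-well plates, lung cancer cell lines were treated by pin tool with a single drug, or with a fixed anchor-drug dose together with five library-drug doses (not always all listed) in √10 steps. After 5 days, a combined fix-and-stain solution (final 0.05% Triton X-100, 1% formaldehyde, 1 ug/ml Hoechst) was added. Nuclei counted on 4× images gave relative viability as treated counts over vehicle counts, reported as the median of duplicate plates.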

JZL-184 + Lapatinib = compound: C1CN(CCC1C(C2=CC3=C(C=C2)OCO3)(C4=CC5=C(C=C4)OCO5)O)C(=O)OC6=CC=C(C=C6)[N+](=O)[O-] [JZL-184] + CS(=O)(=O)CCNCc1ccc(-c2ccc3ncnc(Nc4ccc(OCc5cccc(F)c5)c(Cl)c4)c3c2)o1 [Lapatinib] (partner 2 µM)
Procedure, shortened: as §1

JZL-184 + Phenformin = compound: C1CN(CCC1C(C2=CC3=C(C=C2)OCO3)(C4=CC5=C(C=C4)OCO5)O)C(=O)OC6=CC=C(C=C6)[N+](=O)[O-] [JZL-184] + N=C(N)NC(=N)NCCc1ccccc1 [Phenformin] (partner 250 µM)
Procedure, shortened: as §1

JZL-184 + Olaparib = compound: C1CN(CCC1C(C2=CC3=C(C=C2)OCO3)(C4=CC5=C(C=C4)OCO5)O)C(=O)OC6=CC=C(C=C6)[N+](=O)[O-] [JZL-184] + O=C(c1cc(Cc2n[nH]c(=O)c3ccccc23)ccc1F)N1CCN(C(=O)C2CC2)CC1 [Olaparib] (partner 8 µM)
Procedure, shortened: as §1

JZL-184 + Palbociclib = compound: C1CN(CCC1C(C2=CC3=C(C=C2)OCO3)(C4=CC5=C(C=C4)OCO5)O)C(=O)OC6=CC=C(C=C6)[N+](=O)[O-] [JZL-184] + CC(=O)c1c(C)c2cnc(Nc3ccc(N4CCNCC4)cn3)nc2n(C2CCCC2)c1=O [Palbociclib] (partner 0.5 µM)
Procedure, shortened: as §1

| Cell Line | relative viability (JZL-184 + Pemetrexed; first compound 0.04 µM) | relative viability (JZL-184 + Pemetrexed; first compound 0.4 µM) | relative viability (JZL-184 + Pemetrexed; first compound 1.265 µM) | relative viability (JZL-184 + Pemetrexed; first compound 4 µM) | relative viability (JZL-184 + Lapatinib; first compound 0.04 µM) | relative viability (JZL-184 + Lapatinib; first compound 0.4 µM) | relative viability (JZL-184 + Lapatinib; first compound 1.265 µM) | relative viability (JZL-184 + Lapatinib; first compound 4 µM) | relative viability (JZL-184 + Phenformin; first compound 0.04 µM) | relative viability (JZL-184 + Phenformin; first compound 0.4 µM) | relative viability (JZL-184 + Phenformin; first compound 1.265 µM) | relative viability (JZL-184 + Phenformin; first compound 4 µM) | relative viability (JZL-184 + Olaparib; first compound 0.04 µM) | relative viability (JZL-184 + Olaparib; first compound 0.4 µM) | relative viability (JZL-184 + Olaparib; first compound 1.265 µM) | relative viability (JZL-184 + Olaparib; first compound 4 µM) | relative viability (JZL-184 + Palbociclib; first compound 0.04 µM) | relative viability (JZL-184 + Palbociclib; first compound 0.4 µM) | relative viability (JZL-184 + Palbociclib; first compound 1.265 µM) | relative viability (JZL-184 + Palbociclib; first compound 4 µM) |
| --- | --- | --- | --- | --- | --- | --- | --- | --- | --- | --- | --- | --- | --- | --- | --- | --- | --- | --- | --- | --- |
| NCI-H596 | 0.543 | 0.411 | 0.452 | 0.48 | 1.12 | 0.948 | 1.04 | 0.992 | 0.895 | 0.663 | 0.895 | 0.769 | 0.669 | 0.728 | 0.721 | 0.753 | – | – | – | – |
| NCI-H727 | – | – | – | – | 0.92 | 0.688 | 0.862 | 0.807 | 0.676 | 0.517 | 0.509 | 0.45 | 0.661 | 0.723 | 0.747 | 0.552 | 0.64 | 0.708 | 0.63 | 0.738 |
| NCI-H1563 | 0.851 | 0.776 | 0.821 | 0.739 | 0.951 | 0.923 | 0.972 | 0.868 | 0.694 | 0.636 | 0.681 | 0.64 | – | – | – | – | – | – | – | – |
| NCI-H1703 | – | – | – | – | 1.44 | 0.936 | 1.4 | 0.983 | – | – | – | – | 0.521 | 0.434 | 0.576 | 0.426 | – | – | – | – |
| NCI-H2342 | 0.654 | 0.732 | 0.78 | 0.778 | – | – | – | – | 0.598 | 0.534 | 0.635 | 0.697 | 0.416 | 0.4 | 0.383 | 0.543 | 0.563 | 0.535 | 0.522 | 0.529 |
| SW 900 | 0.496 | 0.482 | 0.537 | 0.491 | – | – | – | – | 0.595 | 0.506 | 0.555 | 0.748 | 0.966 | 0.858 | 0.844 | 0.898 | 0.548 | 0.513 | 0.558 | 0.521 |
